Laboratory results published in patent EP0374249A1, “METHOD OF STERILIZING PLANT POLLEN” (VSESOJUZNY NAUCHNO-ISSLEDOVATELSKY INST. SELSKOKHOZYAISTV. …, priority 1988, dated 1989).

Columns and labels:
Linie BK-119 = experiment: Field test of pollen sterilisation, sunflower line BK-119; type: in vivo, Sonnenblume; conditions: period V, 0.5% emulsion; for Prozentsatz der Sterilität: 3 kg/ha (N-Karbamoylmaleaminsäure) or 0.1% emulsion, 1 kg/ha (N-(3-Dimethylaminopropyl)-maleaminsäure); for Ansetzen von Ächänen bei freier Bestäubung in %: 3 kg/ha or 0.1% emulsion, 1 kg/ha, free pollination
Description: (§1) Die gametozide Aktivität der erfindungsgemässen Sterilisationsmittel war im Feldversuch in verschiedenen Bodenklimatischen Zonen mit Teilstücken von 10 m^2 Grösse in drei- bis viermaliger Wiederholung nachgewiesen. Jedes Sterilisationsmittel wurde mindestens 5 Jahre lang geprüft.
(§2) Die Entwicklung der Perioden der Organogenese wird zytologischüberwacht. Die Behandlung von Pflanzen mit dem Sterilisationsmittel erfolgt am Anfang der fünften Periode der Organogenese nach Kupermann.
(§3) Zur Kontrolle der chemischen Sterilisation des Sonnenblumenpollens werden für jede Verbindung 45 behandelte Pflanzen jeder Wiederholung benutzt, wobei 15 Pflanzen von denen zwecks Selbstbestäurun^g des Blütenkörbchens isoliert werden, 15 andere Pflanzen mit einem Pollengemisch, gesammelt von 20 bis 25 behandelten isolierten Körbchen, bestäubt werden und 15 Pflanzen für freie Bestäubeung gelassen werden, damit das Ansetzen von Ächänen mit dem Pollen der Vaterform kontrolliert werden kann.
(§4) Man beurteilt die Pollensterilität von Pflanzen der Sonnenblume nach der Pollenfertilität und -keimfähigkeit, nach den morphologischen Besonderheiten von Spermien und nach der Fähigkeit von Achänen zum Ansetzen bei der Bestäubung der behandelten isolierten Pflanzen mit dem Pollen der unbehandelten väterlichen Form. Die Lebensfähigkeit der Eizelle wird nach der Samenbildung von behandelten Pflanzen bei freier Bestäubung der väterlichen Form ermittelt.
(§5) Pflanzen der Sonneblume Sorte Peredovik und Linie BK-119 werden in der V. Periode der Organogenese (nach Kupermann) mit einer 0,5%igen wässrigen Emulsion der N-Karbamoylmaleaminsäure behandelt. Die Emulsion enthält 0,01 Masse% Dimethylsulfoxid und 0,1 Masse% Kalziumalkylbenzolsulfonat mit 12 bis 14 Kohlenstoffatomen. Der Verbrauch an Präparat beträgt 3 kg/ha. Die gleichen Pflanzen werden mit einer 0,1masseprozentigen wässrigen Emulsion der N-(3-Dimethylaminopropyl)-maleaminsäure behandelt. Im letzten Falle enthält die Emulsion 0,01 Masse% Dodezylsulfat und 0,1 Masse% Kalziumalkylbenolsulfonat mit 12 bis 14 Kohlensotffatomen. Der Verbrauch an Präparat beträgt 1 kg/ha. Als Kontrolle dienen Pflanzen, behandelt mit einem Verdünner.ohne Sterilisationsmittel. Die Prufergenisse sind in der Tabelle 14 dargestellt. […] Periode der Organogenese erhalten.

[1] = test system: Winterweizens Sorte Mir.onovskaya 808; experiment: Field test of pollen sterilisation (gametocidal activity), winter wheat Mironovskaya 808; type: in vivo, Winterweizen; conditions: 2% aqueous emulsion, 20 kg/ha
Description: Als Emulgierungsmittel wird 0,1 Masse% Kalziumalkylbenzolsulfonat mit 12 bis 14 Kohlenstoffatomen hinzugefügt. Als Adjuvans fährt man in die Emulsion 0,01 Masse% Dimethylsulfoxid ein. Der Verbrauch an Präparat beträgt 20 kg/ha. Als Kontrolle dienen Pflanzen, behandelt mit einem Verdünner ohne Sterilisationsmittel.

[2] = test system: Winterweizens Sorte Bezostaya 1; experiment: Field test of pollen sterilisation, winter wheat Bezostaya 1; type: in vivo, Winterweizen; conditions: 2% aqueous emulsion, 16 kg/ha
Description: Pflanzen des Winterweizens Sorte Bezostaya 1 werden in der V. Periode der Organogenese durch Zerstäubung einer 2%igen wässrigen Emulsion von N-(2-Dimethylaminoäthyl)-maleaminsäure, N-(3-Dimethylaminopropyl)-maleaminsäure, N-Äthylmaleaminsäure, N-(2-Hydroxyäthyl)-maleaminsäure, N-Karbamoylmaleaminsäure mit Hilfe deiner Rückspritze behandelt. Die Emulsion enthält 0,1 Masse% Kalziumalkylbenzolsulfonat mit 12 bis 14 Kohlenstoffatomen. Als Adjuvans führt man in die Emulsion 0,01 Masse% Tetrahydrofuran ein.
Der Verbrauch an Präparat beträgt 16 kg/ha. Als Kontrolle dienen Pflanzen, behandelt mit einem Verdünner ohne Sterilisationsmitteln.

[3] = test system: Sommerweizens Sorte Moskovskaya 35; experiment: Field test of pollen sterilisation, spring wheat Moskovskaya 35; type: in vivo, Sommerweizen; conditions: 1% aqueous emulsion, 10 kg/ha
Description: Pflanzen des Sommerweizens Sorte Moskovskaya 35 werden in V. Periode der Organogenese (nach Kupermann) mit einer 1%igen wässrigen Emulsion von N-(2-Dimethyl-aminoäthyl)-maleaminsäure, N-(3-Dimethylaminopropyl)-maleaminsäure, N-Äthylmaleaminsäure, N-(2-Hydroxyäthyl) maleaminsäure bzw. N-Karbamoylmaleaminsäure behandelt. Die Emulsion enthält 0,5 Masse% Kalziumalkylbenzolsulfonat mit 12 bis 14 Kohlenstoffatomen als Emulgierungsmittel und 0,01 Masse% Dimethylformamid als Adjuvans. Der Verbrauch an Präparat beträgt 10 kg/ha. Als Kontrolle dienen Pflanzen, behandelt mit einem Verdünner ohne Sterilisationsmittel.

[4] = test system: Sommerweizens Sorte Botanicheskaya 4; experiment: Field test of pollen sterilisation, spring wheat Botanicheskaya 4; type: in vivo, Sommerweizen; conditions: 1% aqueous emulsion, 6 kg/ha
Description: Pflanzen des Sommerweizens Sorte Botanicheskaya 4 werden in der V. Periode der Organogenese (nach Kupermann) mit einer 1%igen Wässrigen Emulsion von N-(2-Dimethyl-aminoäthyl)-maleaminsäure, N-(3-Dimethylaminopropyl)-maleaminsäure, N-Äthylmaleaminsäure, N-(2-Hydroxyäthyl)-maleaminsäure bzw. N-Karbamoylmaleaminsäure behandelt. Die Emulsion enthält 0,5 Masse% Kalziumalkylbenzolsulfonat mit 12 bis 14 Kohlenstoffatomen und 0,01 Masse% Dimethylsulfoxid als Adjuvans. Der Verbrauch an Präparat beträgt 6 kg/ha. Als Kontrolle dienen Pflanzen, behandelt mit einem Verdünner ohne Sterilisationsmittel.

[5] = test system: tetraploidem Roggen Sorte Belta; experiment: Field test of pollen sterilisation, tetraploid rye Belta; type: in vivo; conditions: 1% aqueous emulsion, 10 kg/ha
Description: as §1, §2
(§6) Mit dem Ahrenschiebe verwirklicht man die Isolierung von Hauptähren und anderen Stockwerken in Pergamentbeuteln. Bei Weizen und Tritikale werden Einzelisolatoren verwendet. Bei Roggen schliesst man je Ähre 5 bis 7 verschiedene nebeneinander befindliche Pflanzen unter einen gemeinsamen Isolator ein. Bei Hirse wird jede Rispe getrennt isoliert. Der Sterilitätsprozentsatz (X) für Weizen, Roggen, Tritikale und Hirse wird nach folgender Formel [formula] ermittelt.
(§7) Die Kornzahl in nicht isolierten ähren von Kontrollpflanzen wird bedingt für 100% Ansetzen bei freier Bestäubung angenommen.
(§8) Um zuverlässige Angaben zu erhalten, verwendet man 20 bis 25 Isolatoren jeder Wiederholung für Weisen und Tritikale, 10 bis 15 Gruppenisolatoren jeder Wiederholung für Roggen und Hirse.
Pflanzen von tetraploidem Roggen Sorte Belta werden in der V. Periode der Organogenese (nach Kupermann) mit einer 1%igen wässrigen Emulsion von N-(2-Dimethylamino- .äthyl)maleaminsäure, N-(3-Dimethylaminopropyl)maleaminsäure, N-Äthylmaleaminsäure, N-(2-Hydroxyäthyl)maleaminsäure bzw. Karbamoylmaleaminsäure behandelt. Die Emulsion enthält 0,5 Masse% Kalziumalkylbenzolsulfonat mit 12 bis 14 Kohlenstoffatomen und 0,01 Masso% Tetrahydrofuran. Der Verbrauch an Präparat beträgt 10 kg/ha. Die Prüfergebnisse sind in der Tabelle 5 dargestellt. […] Periode der Organogenese erhalten.

[6] = test system: tetraploidem Roggen Sorte Ukrainskaya tetra; experiment: Field test of pollen sterilisation, tetraploid rye Ukrainskaya tetra; type: in vivo; conditions: 1% aqueous emulsion, 6 kg/ha
Description: (§9) Jedes Sterilisationsmittel wurde mindestens 5 Jahre lang geprüft.
as §2, §6, §7, §8
Pflanzen von tetraploidem Roggen Sorte Ukrainskaya tetra werden in der V. Periode der Organogenese (nach Kupermann) mit einer 1%igen wässrigen Emulsion von N-(2-Dimethylaminoäthyl)maleaminsäure, N-(3-Dimethyl-aminopropu)maleaminsäure bzw. N-Karbamoylmaleaminsäure behandelt. Die Emulsion enthält 0,1 Masse% Kaliumalkylbenzolsulfonat mit 12 bis 14 Kohlenstoffatomen und 0,01 Masse% Dodezylsulfat. Der Verbrauch an Präparat beträgt 6 kg/ha. Als Kontrolle dienen Pflanzen, behandelt mit einem Verdünner ohne Sterilisationsmittel. Die Prüfergebnisse sind in der Tabelle 6 dargestellt.

[7] = test system: diploidem Roggen Sorte Voskhod 2; experiment: Field test of pollen sterilisation, diploid rye Voskhod 2; type: in vivo; conditions: 1% aqueous emulsion, 10 kg/ha
Description: Die Emulsion enthält 0,1 Masse% Kalziumalkylbenzolsulfonat und 0,01 Masse% Dimethylformamid. Der Verbrauch an Präparat beträgt 10 kg/ha. Als Kontrolle dienen Pflanzen, behandelt mit einem Lösungsmittel ohne Sterilisationsmittel.

[8] = test system: diploidem Roggen Sorte Chulpan; experiment: Field test of pollen sterilisation, diploid rye Chulpan; type: in vivo; conditions: 1% aqueous emulsion, 8 kg/ha
Description: (§10) Mit dem Ahrenschiebe verwirklicht man die Isolierung von Hauptähren und anderen Stockwerken in Pergamentbeuteln. […] Bei Roggen schliesst man je Ähre 5 bis 7 verschiedene nebeneinander befindliche Pflanzen unter einen gemeinsamen Isolator ein. […] Der Sterilitätsprozentsatz (X) für Weizen, Roggen, Tritikale und Hirse wird nach folgender Formel [formula] ermittelt.
Die Emulsion enthält 0,01 Masse% Tetranydrofuran und 0,1 Masse% Kalziumalkylbenzolsulfonat mit 12 bis 14 Kohlenstoffatomen. Der Verbrauch an Präparat beträgt 8 kg/ha. Als Kontrolle dienen Pflanzen, behandelt mit einem Verdünner ohne Sterilisationsmittel.

[9] = test system: diploidem Roggen Sorte Talovskaya 12; experiment: Field test of pollen sterilisation, diploid rye Talovskaya 12; type: in vivo; conditions: 1% aqueous emulsion, 6 kg/ha
Description: as §10
Pflanzen von diploidem Roggen Sorte Talovskaya 12 werden in der V. Periode der Organogenese (nach Kupermann) mit einer 1%igen wässrigen Emulsion von N-(2-Di- methylaminoäthyl)-maleaminsäure, N-(3-Dimethylaminopropyl)-maleaminsäure, N-Äthylmaleaminsäure, N-(2-Hydroxyäthyl)maleaminsäure, N-Karbamoylmaleaminsäure behandelt. Die Emulsion enthält 0,01 Masse% Dodezylsulfat und 0,1 Masse% Kalziumalkylbenzolsulfonat mit 12 bis _14 Kohlenstoffatomen. Der Verbrauch an Präparat beträgt 6 kg/ha. Als Kontrolle dienen Pflanzen, behandelt mit einem Verdünner ohne Sterilisationsmittel.

Tritikale Sorte Prag 109 = experiment: Field test of pollen sterilisation, triticale Prag 109; type: in vivo; conditions: 2% aqueous emulsion, 12 kg/ha
Description: as §9, §2, §6, §7, §8
V.Periode der Organogenese (nach Kupermann) mit einer 2%igen wässrigen Emulsion von N-(3-Dimethylaminopropyl) maleaminsäure, N-Karbamoylmaleaminsäure behandelt. Die Emulsion enthält 0,01 Masse% Tetrahydrofuran […] und 0,1 Masse% Kalziumalkylbenzolsulfonat mit 12 bis 14 Kohlensotffatomen. Der Verbrauch an Präparat beträgt 12 kg/ha. Als Kontrolle dienen Pflanzen, behandelt mit einem Verdünner ohne Sterilisationsmittel.

[10] = test system: Hirse Sorte Mironovskoe 94; experiment: Field test of pollen sterilisation, millet Mironovskoe 94; type: in vivo; conditions: 1% aqueous emulsion, 8 kg/ha
Description: as §1, §2, §6, §7, §8
Pflanzen der Hirse Sorte Mironovskoe 94 werden in der V. Periode der Organogenese (nach Kupermann) mit einer 1%igen wässrigen Emulsion von N-(2-Dimethylaminoäthyl)maleaminsäure, N-(3-Dimethylaminopropyl)maleaminsäure, N-Äthylmaleaminsäure, N-(2-Hydroxyäthyl)maleaminsäure, N-Karbamoylmaleaminsäure behandelt. Die Emulsion enthält 0,01 Masse% Dimethylaulfoxid und 0,1 Masse% Kalziumalkylbenzolsulfonat mit 12 bis 14 Kohlenstoffatomen. Der Verbrauch an Präparat beträgt 8 kg/ha. Als Kontrolle dienen Pflanzen, behandelt mit einem Verdünner ohne Sterilisationsmittel. Die Prüfergebnisse sind in der Tabelle 12 dargestellt. […] Periode der Organogenese erhalten.

[11] = Toxicity test in animals (LD50); conditions: in vivo; animal test, per kg animal weight; species and route not given
Description: Alle erfindungsgemässen N-substituierten Maleaminsäuren, welche als Sterilisationsmittel zur Verwendung kommen, waren auf die Toxizität im Tierversuch geprüft. Die Prüfergebnisse haben ergeben, dass die angegebenen Verbindungen von schwacher oder mittlerer Toxizität sind.

[12] = test system: Sonneblume Sorte Peredovik; experiment: Field test of pollen sterilisation, sunflower variety Peredovik; type: in vivo, Sonnenblume; conditions: period V, 0.5% emulsion; for Prozentsatz der Sterilität: 3 kg/ha (N-Karbamoylmaleaminsäure) or 0.1% emulsion, 1 kg/ha (N-(3-Dimethylaminopropyl)-maleaminsäure); for Ansetzen von Ächänen bei freier Bestäubung in %: 3 kg/ha or 0.1% emulsion, 1 kg/ha, free pollination
Description: as §1, §2, §3, §4, §5

[13] = period V of organogenesis, free pollination
[14] = period V of organogenesis, isolated ears
[15] = period V, non-isolated control ears = 100%

CN(C)CCCNC(=O)/C=C\C(=O)O [Beispiel 64, N-(3-Dimethylaminopropyl)-maleaminsäure]
Prozentsatz der Sterilität (Linie BK-119): 100,0%
Ansetzen von Ächänen bei freier Bestäubung in % (Linie BK-119): 80,4%

NC(=O)NC(=O)/C=C\C(=O)O [Beispiel 61, N-Karbamoylmaleaminsäure]
Prozentsatz der Sterilität (Linie BK-119): 100,0%
Ansetzen von Ächänen bei freier Bestäubung in % (Linie BK-119): 82,5%

CN(C)CCCNC(=O)/C=C\C(=O)O [Beispiel 2, N-(3-Dimethylaminopropyl)-maleaminsäure]
Prozentsatz der Sterilität ([1]; period V of organogenesis): 99,8%
Anzahl von Körnern der Ähre bei freier Bestäubung [1, 13]: 41,5
Anzahl von Körnern der Ähre im Isolator [1, 14]: 0,1
Prozentsatz des Ansetzens von Körnern bei freier Bestäubung [1, 15]: 97,4%
Prozentsatz der Sterilität ([2]; period V of organogenesis): 100,0%
Anzahl von Körnern der Ähre bei freier Bestäubung [2, 13]: 40,2
Anzahl von Körnern der Ähre im Isolator [2, 14]: 0,0
Prozentsatz des Ansetzens von Körnern bei breier Bestäubung [2, 15]: 93,7%
Prozentsatz der Sterilität ([3]; period V of organogenesis): 98,9%
Anzahl von Körnern der Ähre bei freier Bestäubung [3, 13]: 27,0
Anzahl von Körnern der Ähre im Isolator [3, 14]: 0,3
Prozentsatz des Ansetzens von Körnern bei freier Bestäubung [3, 15]: 98,2%
Prozentsatz der Sterilität ([4]; period V of organogenesis): 99,7%
Anzahl von Körnern der Ähre bei freier Bestäubung [4, 13]: 27,7
Anzahl von Körnern der Ähre im Isolator [4, 14]: 0,1
Prozentsatz des Ansetzens von Körnern bei freier Bestäubung [4, 15]: 92,0%
Prozentsatz der Sterilität ([5]; period V of organogenesis): 100,0%
Anzahl von Körnern der Ähre bei freier Bestäubung [5, 13]: 47,7
Anzahl von Körnern der Ähre im Isolator [5, 14]: 0,0
Prozentsatz des Ansetzens von Körnern bei freier Bestäubung [5, 15]: 87,0%
Prozentsatz der Sterilität ([6]; period V of organogenesis): 100,0%
Anzahl von Körnern der Ähre bei freier Bestäubung [6, 13]: 42,6
Anzahl von Körnern der Ähre im Isolator [6, 14]: 0,0
Prozentsatz des Ansetzens von Körnern bei freier Bestäubung [6, 15]: 95,1%
Prozentsatz der Sterilität ([7]; period V of organogenesis): 100,0%
Anzahl von Körnern der Ähre bei freier Bestäubung [7, 13]: 48,0
Anzahl von Körnern der Ähre im Isolator [7, 14]: 0,0
Prozentsatz des Ansetzens von Körnern bei freier Bestäubung [7, 15]: 87,0%
Prozentsatz der Sterilität ([8]; period V of organogenesis): 100,0%
Anzahl von Körnern der Ähre bei freier Bestäubung [8, 13]: 51,6
Anzahl von Körnern der Ähre im Isolator [8, 14]: 0,0
Prozentsatz des Ansetzens von Körnern bei freier Bestäubung [8, 15]: 90,8%
Prozentsatz der Sterilität ([9]; period V of organogenesis): 100,0%
Anzahl von Körnern der Ähre bei freier Bestäubung [9, 13]: 48,0
Anzahl von Körnern der Ähre im Isolator [9, 14]: 0,0
Prozentsatz des Ansetzens von Körnern bei freier Bestäubung [9, 15]: 85,4%
Prozentsatz der Sterilität (Tritikale Sorte Prag 109; period V of organogenesis): 100,0%
Anzahl von Körnern der Ähre bei freier Bestäubung (Tritikale Sorte Prag 109; [13]): 40,3
Anzahl von Körnern der Ähre im Isolator (Tritikale Sorte Prag 109; [14]): 0,0
Prozentsatz des Ansetzens von Körnern bei freier Bestäubung (Tritikale Sorte Prag 109; [15]): 88,0%
Prozentsatz der Sterilität ([10]; period V of organogenesis): 100,0%
Anzahl von Körnern der Rispe bei freier Bestäubung [10, 13]: 214,5
Anzahl von Körnern der Rispe im Isolator ([10]; period V of organogenesis, isolated panicles): 0,0
Prozentsatz des Ansetzens von Körnern bei freier Bestäubung ([10]; period V, non-isolated control = 100%): 94,4%
LD50 [11]: > 10000 mg/kg

CN(C)CCCNC(=O)/C=C\C(=O)O [Beispiel 60, N-(3-Dimethylaminopropyl)-maleaminsäure]
Prozentsatz der Sterilität [12]: 100,0%
Ansetzen von Ächänen bei freier Bestäubung in % [12]: 84,9%

NC(=O)NC(=O)/C=C\C(=O)O [Beispiel 59, N-Karbamoylmaleaminsäure]
Prozentsatz der Sterilität [12]: 100,0%
Ansetzen von Ächänen bei freier Bestäubung in % [12]: 81,7%
